Data published in patent US20170067909A1, “ASSAY-READY RECOMBINANT CELLS TRANSIENTLY OVEREXPRESSING GENES ENCODING DRUG TRANSPORTER PROTEINS AND/OR DRUG METABOLIZING ENZYMES” (Corning Incorporated, priority 2012, published 2017).
Like-named read-outs stand apart in the source and are kept apart here.

Key:
rat Oatp1b2 = target: T1, rat Oatp1b2 (Rattus norvegicus, UniProt Q9QZX8)
T1 sequence (Q9QZX8 1-687): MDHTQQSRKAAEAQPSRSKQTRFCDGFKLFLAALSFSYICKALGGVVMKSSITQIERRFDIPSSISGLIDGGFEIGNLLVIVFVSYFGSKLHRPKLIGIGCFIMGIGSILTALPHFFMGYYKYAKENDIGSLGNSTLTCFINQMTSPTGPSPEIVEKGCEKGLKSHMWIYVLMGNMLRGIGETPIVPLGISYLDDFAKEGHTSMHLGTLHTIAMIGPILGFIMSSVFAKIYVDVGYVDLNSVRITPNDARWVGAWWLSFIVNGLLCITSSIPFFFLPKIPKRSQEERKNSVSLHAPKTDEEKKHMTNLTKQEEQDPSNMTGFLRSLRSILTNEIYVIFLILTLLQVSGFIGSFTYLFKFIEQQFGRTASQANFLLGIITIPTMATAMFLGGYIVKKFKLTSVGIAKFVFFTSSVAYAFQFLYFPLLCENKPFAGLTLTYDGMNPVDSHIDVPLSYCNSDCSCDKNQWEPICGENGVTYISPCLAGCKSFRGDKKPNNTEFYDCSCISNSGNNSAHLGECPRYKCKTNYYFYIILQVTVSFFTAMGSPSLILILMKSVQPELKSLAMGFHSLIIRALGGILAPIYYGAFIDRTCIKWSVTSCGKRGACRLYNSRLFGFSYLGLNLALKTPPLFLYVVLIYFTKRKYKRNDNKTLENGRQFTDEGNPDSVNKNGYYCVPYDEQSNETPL

OATP1B1*1a [1] = target: T2, OATP1B1*1a (Homo sapiens, UniProt Q9Y6L6); settings: read-out: Km, SLC Transporter Cells; substrate 0.25 to 40 μM, incubation 1 min
T2 sequence (Q9Y6L6 1-691): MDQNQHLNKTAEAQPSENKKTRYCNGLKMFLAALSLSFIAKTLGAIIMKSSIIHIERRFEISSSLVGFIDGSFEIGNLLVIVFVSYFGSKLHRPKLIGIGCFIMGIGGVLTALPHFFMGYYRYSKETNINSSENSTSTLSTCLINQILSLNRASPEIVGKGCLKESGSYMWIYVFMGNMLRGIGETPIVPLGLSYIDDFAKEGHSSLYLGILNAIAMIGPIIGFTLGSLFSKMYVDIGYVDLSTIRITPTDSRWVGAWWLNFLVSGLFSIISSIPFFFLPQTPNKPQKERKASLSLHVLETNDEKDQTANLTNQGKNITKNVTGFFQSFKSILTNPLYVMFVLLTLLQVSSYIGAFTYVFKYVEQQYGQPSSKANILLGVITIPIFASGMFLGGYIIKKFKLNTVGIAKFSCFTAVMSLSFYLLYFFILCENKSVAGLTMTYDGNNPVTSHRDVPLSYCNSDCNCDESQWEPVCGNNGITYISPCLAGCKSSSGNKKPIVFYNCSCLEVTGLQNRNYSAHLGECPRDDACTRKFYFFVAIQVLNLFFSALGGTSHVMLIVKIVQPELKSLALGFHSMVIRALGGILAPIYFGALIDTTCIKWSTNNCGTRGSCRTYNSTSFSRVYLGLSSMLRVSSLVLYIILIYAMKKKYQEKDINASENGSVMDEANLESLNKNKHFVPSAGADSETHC

OATP1B1*1a [2] = target: T2, OATP1B1*1a; settings: read-out: Km, Literature Report; HEK293 cells; P. Sharma, et al. Xenobiotica 40:24. 2010; cited from earlier work
[3] = target: T3, Organic Anion-Transporting Polypeptide 1B1 (Homo sapiens, UniProt Q9Y6L6); test: Positive control plated (adherent) assay, Corning TransportoCells OATP1B1*1a; format: in vitro ADME; settings: PC: Plated Assay, Seeded at 250k/well (24-well), assay at 48 hours; 5 uM FMTX, 10 min
T3 construct: host or cells: HEK293 cells, gene delivered by electroporation
T3 sequence (Q9Y6L6 1-691): T2 sequence (Q9Y6L6 1-691)
Excerpt: A positive control was provided via an adherent assay for characterizing the activity of a drug transporter protein in cryopreserved, Corning® TransportoCells™. Corning® TransportoCells™ transiently transfected with the gene OATP1B1*1a were obtained from Corning Life Sciences (Cat. No. 354859). In order to obtain suitable expression of the Organic Anion-Transporting Polypeptide 1B1 encoded by OATP1B1*1a, the Corning® TransportoCells™ were thawed, cultured, and harvested. […] The cells were cultured via plating in a 24-well PDL-Treated Plate (cell density of 250K cells/well; obtained from Corning Life Sciences) with plating medium for 48 hours at 37° C. and 8% CO2. The plating medium is detailed in Table 16. After 24 hours, cells were refed by 400 uL plating media supplemented with 5 mM sodium butyrate (obtained from Sigma). After 48 hours, cells were washed three times using 0.4 mL prewarmed HBSS (Corning). Then 0.3 mL substrate solution containing 5 uM FMTX were added to the cells and the cells were incubated for 10 min at 37 degree. After 10 min incubation time, the cells were washed 3 times using 0.4 mL cold HBSS. The cells were lysed and subjected to the BCA protein analysis and/or fluorescence analysis to characterize the activity of Organic Anion-Transporting Polypeptide 1B1.

[4] = HEK-293 cells overexpressing the transporter

Compound | Km (rat Oatp1b2) [µM] | uptake of substrate (in words) (rat Oatp1b2; [4]) | Km (dog Oatp1b4) [µM] | uptake of substrate (in words) (dog Oatp1b4; [4]) | Km (OATP1B1*1a [1]) [µM] | Km (OATP1B1*1a [2]) [µM] | uptake of substrate (in words) (monkey Oatp1b1; [4]) | Km (monkey Oatp1b1; incubation of 5 minutes, Michaelis-Menten kinetics) [µM] | Uptake Activity OATP1B1 [3] [pmol/mg/min] | Uptake Ratio [3]
C[C@]12CC[C@@H]3c4ccc(O)cc4CC[C@H]3[C@@H]1CC[C@@H]2O[C@@H]1O[C@H](C(=O)O)[C@@H](O)[C@H](O)[C@H]1O [E17βG] | 9.6 ± 1.9 | significant uptake | 12.2 ± 0.6 | significant uptake | 6.2 | 6.3 | significant uptake | 6.3 ± 1.4 | – | –
fluorescein methotrexate [FMTX] | – | – | – | – | – | – | – | – | 1.06 | 30.6
